Measurements published in patent US9289437B2, “Method for preparation of a controlled release system” (Cristal Delivery B.V., priority 2008, dated 2016).

Conditions: 6 hours after intravenous administration, B16F10 tumor-bearing mice

- fraction still residing in the blood stream: 0.3%
Compound: C[C@@H]1C[C@H]2[C@@H]3CCC4=CC(=O)C=C[C@]4(C)[C@@]3(F)[C@@H](O)C[C@]2(C)[C@@]1(O)C(=O)CO [free dexamethasone, dexamethasone]
